Test results as given in patent US10308605B2, “Proton pump inhibitors” (Takeda Pharmaceutical Company Limited, priority 2004, dated 2019).
Structures can show the parent of a compound that is named as a salt. Where two headings read alike, the source gives them in different places.

Molecular target: proton, potassium-adenosine triphosphatase (H^+,K^+-ATPase) (Sus scrofa (Pig), UniProt P19156)
Test: Proton potassium-adenosine triphosphatase (H+,K+-ATPase) inhibitory activity test
Format: biochemical
Conditions: swine gastric mucous membrane microsomal fraction, pH 6.5, 37° C.
Method: Proton Potassium-adenosine Triphosphatase (H^+,K^+-ATPase) Inhibitory Activity Test
According to the method [Biochem. Biophys. Acta., 728, 31 (1983)] of Wallmark et al., a gastric mucous membrane microsomal fraction was prepared from the stomach of swine. First, the stomach was removed, washed with tap water, immersed in 3 mol/L brine, and the surface of the mucous membrane was wiped with a paper towel. The gastric mucous membrane was detached, chopped, and homogenized in a 0.25 mol/L saccharose solution (pH 6.8) containing 1 mmol/L EDTA and 10 mmol/L tris-hydrochloric acid using polytron (Kinematica). The obtained homogenate was centrifuged at 20,000×g for 30 min and the supernatant was centrifuged at 100,000×g for 90 min. The precipitate was suspended in 0.25 mol/L saccharose solution, superimposed on a 0.25 mol/L saccharose solution containing 7.5% Ficoll, and centrifuged at 100,000×g for 5 hr. The fraction containing the interface between the both layers was recovered, and centrifugally washed with 0.25 mol/L saccharose solution.
The obtained microsomal fraction was used as a proton, potassium-adenosine triphosphatase standard product.
To 40 μL of a 50 mmol/L HEPES-tris buffer (5 mmol/L magnesium chloride, 10 mmol/L potassium chloride, 10 μmol/L valinomycin, pH=6.5) containing 2.5 μg/mL (based on the protein concentration) of the enzyme standard product was added a test compound (5 μL) dissolved in a 10% aqueous dimethyl sulfoxide solution, and the mixture was incubated at 37° C. for 30 min. The enzyme reaction was started by adding 5 μL of a 2 mmol/L adenosine triphosphate tris salt solution (50 mmol/L HEPES-tris buffer (5 mmol/L magnesium chloride, pH 6.5)). The enzyme reaction was carried out at 37° C. for 20 min, and 15 μL of a malachite green solution (0.12% malachite green solution in sulfuric acid (2.5 mol/L), 7.5% ammonium molybdate and 11% Tween 20 were mixed at a ratio of 100:25:2) was added to quench the reaction. After allowing to stand at room temperature for 15 min, the resulting reaction product of inorganic phosphorus with malachite green was colorimetrically determined at a wavelength of 610 nm. In addition, the amount of the inorganic phosphoric acid in the reaction solution free of potassium chloride was measured in the same manner, which was subtracted from the inorganic phosphoric acid amount in the presence of potassium chloride to determine the proton, potassium-adenosine triphosphatase activity. The inhibitory rate (%) was determined from the activity value of the control and the activity values of various concentrations of the test compound, and the 50% inhibitory concentration (IC50) of the proton, potassium-adenosine triphosphatase was determined.

[1] = read-out: H^+/K^+-ATPase inhibitory activity (IC50)

Sequence of proton, potassium-adenosine triphosphatase (H^+,K^+-ATPase) (P19156 2-1034): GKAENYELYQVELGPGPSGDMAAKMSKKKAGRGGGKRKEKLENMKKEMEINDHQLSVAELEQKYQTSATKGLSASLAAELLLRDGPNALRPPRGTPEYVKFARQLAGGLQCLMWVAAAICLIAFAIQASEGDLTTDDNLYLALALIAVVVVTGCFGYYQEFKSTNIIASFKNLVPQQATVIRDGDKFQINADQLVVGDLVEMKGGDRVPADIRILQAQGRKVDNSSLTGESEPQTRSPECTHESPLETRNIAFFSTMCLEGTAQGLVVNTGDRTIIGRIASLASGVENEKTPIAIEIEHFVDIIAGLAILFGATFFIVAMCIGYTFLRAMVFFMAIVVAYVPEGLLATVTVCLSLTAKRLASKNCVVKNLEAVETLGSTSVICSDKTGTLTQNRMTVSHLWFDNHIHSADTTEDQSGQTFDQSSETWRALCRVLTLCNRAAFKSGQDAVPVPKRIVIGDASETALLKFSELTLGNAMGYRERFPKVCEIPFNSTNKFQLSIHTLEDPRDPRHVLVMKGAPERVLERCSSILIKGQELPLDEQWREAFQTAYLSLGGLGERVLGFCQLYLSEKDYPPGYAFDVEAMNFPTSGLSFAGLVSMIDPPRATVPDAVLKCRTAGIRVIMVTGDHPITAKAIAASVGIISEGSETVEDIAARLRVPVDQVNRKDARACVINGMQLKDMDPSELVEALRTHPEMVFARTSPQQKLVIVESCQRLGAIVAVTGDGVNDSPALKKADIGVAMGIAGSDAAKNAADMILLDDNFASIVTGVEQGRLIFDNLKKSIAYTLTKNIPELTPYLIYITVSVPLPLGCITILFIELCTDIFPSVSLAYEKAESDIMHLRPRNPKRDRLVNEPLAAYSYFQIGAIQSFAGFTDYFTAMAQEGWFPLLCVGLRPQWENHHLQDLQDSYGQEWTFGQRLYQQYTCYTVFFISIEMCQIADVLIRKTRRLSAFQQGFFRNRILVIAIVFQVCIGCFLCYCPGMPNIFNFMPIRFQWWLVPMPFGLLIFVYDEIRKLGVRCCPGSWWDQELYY
Sequence of proton, potassium-adenosine triphosphatase (H^+,K^+-ATPase) (P18434 whole entry partner): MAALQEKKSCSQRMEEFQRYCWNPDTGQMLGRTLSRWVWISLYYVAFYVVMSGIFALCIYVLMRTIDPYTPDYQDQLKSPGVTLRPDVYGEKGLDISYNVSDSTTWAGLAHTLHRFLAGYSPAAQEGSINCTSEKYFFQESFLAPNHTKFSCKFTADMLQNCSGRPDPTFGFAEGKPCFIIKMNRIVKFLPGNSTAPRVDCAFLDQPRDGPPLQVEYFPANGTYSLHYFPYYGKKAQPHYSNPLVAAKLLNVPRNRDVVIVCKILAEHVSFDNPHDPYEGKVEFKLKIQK

Row | SMILES | IC50 (read-out: IC50) | IC50 [1]
1 | CNCc1cc(-c2cccc(C)c2)n(S(=O)(=O)c2ccc(C)cc2)c1 [Example 7, N-Methyl-1-{5-(3-methylphenyl)-1-[(4-methylphenyl)sulfonyl]-1H-pyrrol-3-yl}methanamine hydrochloride] | 91 nM | 
2 | CNCc1cc(-c2ccccc2)n(S(=O)(=O)c2ccc(F)cc2C)c1 [Example 11, 1-{1-[(4-Fluoro-2-methylphenyl)sulfonyl]-5-phenyl-1H-pyrrol-3-yl}-N-methylmethanamine hydrochloride] | 51 nM | 
3 | CN(C)Cc1cc(-c2ccccc2)n(S(=O)(=O)c2ccc(C(F)(F)F)cc2)c1 [Example 12, N,N-Dimethyl-1-(5-phenyl-1-{[4-(trifluoromethyl)phenyl]sulfonyl}-1H-pyrrol-3-yl)methanamine hydrochloride] | 710 nM | 
4 | CNCc1cc(-c2ccccc2)n(S(=O)(=O)c2cc3ccccc3s2)c1 [Example 152, 1-[1-(1-Benzothien-2-ylsulfonyl)-5-phenyl-1H-pyrrol-3-yl]-N-methylmethanamine hydrochloride] |  | 33 nM
5 | CNCc1cc(-c2ccccc2F)n(S(=O)(=O)c2cccc(S(C)(=O)=O)c2)c1 [Example 161, 1-[5-(2-Fluorophenyl)-1-{[3-(methylsulfonyl)phenyl]sulfonyl}-1H-pyrrol-3-yl]-N-methylmethanamine hydrochloride] |  | 62 nM
6 | CNCc1cc(-c2ccccc2F)n(S(=O)(=O)c2ccccc2F)c1 [Example 165, 1-{5-(2-Fluorophenyl)-1-[(2-fluorophenyl)sulfonyl]-1H-pyrrol-3-yl}-N-methylmethanamine hydrochloride] |  | 9 nM
7 | CNCc1cc(-c2ccccc2)n(S(=O)(=O)c2cccc(C(=O)NC)c2)c1 [Example 204, N-Methyl-3-({4-[(methylamino)methyl]-2-phenyl-1H-pyrrol-1-yl}sulfonyl)benzamide hydrochloride] |  | 86 nM
8 | CNCc1cc(-c2ccccc2C)n(S(=O)(=O)c2cccnc2)c1 [Example 220, N-Methyl-1-[5-(2-methylphenyl)-1-(pyridin-3-ylsulfonyl)-1H-pyrrol-3-yl]methanamine dihydrochloride] |  | 36 nM

Results, then the compound that gave them:

Row | IC50 (read-out: IC50) | IC50 [1] | SMILES
9 |  | 4.2 nM | CNCc1cc(-c2ccsc2)n(S(=O)(=O)c2ccccc2)c1 [Example 30, N-methyl-1-[1-(phenylsulfonyl)-5-(3-thienyl)-1H-pyrrol-3-yl]methanamine hydrochloride]
10 |  | 51 nM | CNCc1cc(-c2ccccc2)n(S(=O)(=O)c2ccsc2)c1 [Example 43, N-Methyl-1-[5-phenyl-1-(3-thienylsulfonyl)-1H-pyrrol-3-yl]methanamine hydrochloride]
11 |  | 78 nM | CNCc1cc(-c2ccccc2)n(S(=O)(=O)c2cccc(S(C)(=O)=O)c2)c1 [Example 140, N-Methyl-1-(1-{[3-(methylsulfonyl)phenyl]sulfonyl}-5-phenyl-1H-pyrrol-3-yl)methanamine hydrochloride]
